According to US12227488B2, “Small molecule degraders of Helios and methods of use” (DANA-FARBER CANCER INSTITUTE, INC., priority 2018, dated 2025):
Entries after “also recorded” stand apart in the source; their conditions may differ.

How the values were obtained:
Ikaros = target: T1, Ikaros (Homo sapiens, UniProt Q13422+Q96SW2); assay: Immunoblot for Ikaros in Jurkat cells; assay type: cell-based
T1 construct: endogenous in cells; host or cells: Jurkat
Description: (§1) A focused library of imide analogs was synthesized and assessed for their ability to induce dimerization between CRBN and Helios in a time-resolved fluorescence energy transfer (TR-FRET) assay (FIG. 1A).
(§2) Cells were lysed in M-PER buffer (Thermo Scientific) containing protease/phosphatase inhibitor cocktail (Roche). Protein concentration was measured using a BCA assay (Pierce™) Equivalent amounts of each sample were loaded on 4-12% Bis-Tris gels (Invitrogen™) transferred to nitrocellulose membranes, and immunoblotted with the indicated antibodies. IRDye®800-labeled goat anti-rabbit IgG and IRDye®680-labeled goat anti-mouse IgG (LI-COR®) secondary antibodies were purchased from LI-COR®, and membranes were detected on an Odyssey® detection system (LI-COR® Biosciences).

IKZF1 = target: T2, IKZF1 (Homo sapiens, UniProt Q13422); assay: Cellular degradation assay, eGFP-IKZF1Δ fusion with mCherry reporter in Flp-In 293 cells; assay type: cell-based; details: 5 h incubation, n=1
T2 construct: expressed in transfected cells; host or cells: Flp-In 293
In short: (§3)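 DC50,5 h derived by variable-slope nonlinear fit of the per-well ratio of GFP-positive to mCherry-positive cells, imaged after 5 h compound exposure at 0.5% DMSO.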

IKZF2 = assay: Cellular degradation assay, eGFP-IKZF2Δ fusion with mCherry reporter in Flp-In 293 cells; assay type: cell-based; details: 5 h incubation, n=1
In short: as §3

Helios [1] = target: T3, Helios (Homo sapiens, UniProt Q96SW2+Q9UKS7); assay: Immunoblot for Helios in Jurkat cells; assay type: cell-based
T3 construct: endogenous in cells; host or cells: Jurkat
Description: as §1, §2
as §2, with “Odyssey” for “Odyssey®”

GSPT1 = GSPT1 (Homo sapiens, UniProt P15170+Q96SW2); assay: Cellular degradation assay, eGFP-GSPT1 fusion with mCherry reporter in Flp-In 293 cells; assay type: cell-based; parameters: expressed in transfected cells; host or cells: Flp-In 293; details: 5 h incubation, n=1
In short: as §3

SALL4 ZNF1-2 = target: T4, SALL4 ZNF1-2 (Homo sapiens, UniProt Q96SW2+Q9UJQ4); assay: Cellular degradation assay, eGFP-SALL4 ZnF1-2 fusion with mCherry reporter in Flp-In 293 cells; assay type: cell-based; details: 5 h incubation, n=1
T4 construct: IKZF1Δ, IKZF2Δ, GSPT1 and SALL4 ZnF1-2 were subcloned; expressed in transfected cells; host or cells: Flp-In 293
In short: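 Read-out is the ratio of GFP-positive to mCherry-positive cells per well, imaged at 488 and 561 nm right after 5-hour compound exposure (normalised to 0.5% DMSO). Cells: Flp-In 293 stably carrying eGFP-P2A-mCherry construct fused to SALL4 ZnF1-2.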

CRBN and Helios (IKZF2) = target: T5, CRBN and Helios (IKZF2) (Homo sapiens, UniProt Q96SW2+Q9UKS7); assay: TR-FRET dimerization assay (CRBN-IKZF2 ternary complex formation); assay type: binding; details: for TR-FRET signal (520/490 ratio), CRBN-Helios dimerization, in words: FIG. 1B, 2A, 5; for TR-FRET-IKZF2 (Normalized to CC-885): n=1
T5 construct: His (N); Strep (N)
In short: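 Compound-induced IKZF2 recruitment to CRBN was read as the 520/490 nm TR-FRET ratio after 15 min at rt. The mix held biotinylated IKZF2, BODIPY-labeled CRBN bound to DDB1 lacking the BPB propeller, tracer Tb-streptavidin and compound titrations; n=1, from ≥3 technical replicates per well.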

Helios [2] = target: T6, Helios (Mus musculus, UniProt P81183); assay: Immunoblot for Helios in Hoxb8-immortalized myeloid progenitor cells (wildtype or Crbn^I391V/I391V); assay type: cell-based, murine; details: Hoxb8 myeloid progenitor cells from wildtype or Crbn^I391V/I391V mice, 18 h
T6 construct: endogenous in cells; host or cells: Hoxb8-immortalized myeloid progenitor cells from mice
Description: IKZF1/3 are not susceptible to IMiD-mediated degradation in murine cells, and this can be rescued by mutating a single amino acid on the surface of murine CRBN (Ile 391) to the analogous human residue (Val). To determine whether Helios follows a similar pattern, Hoxb8-immortalized myeloid progenitor cells derived from wildtype or Crbn^I391V/I391V mice were treated with compound 54. […] Thus, Helios is degradable in murine cells only if they express ‘humanized’ CRBN.

Ikzf2 mRNA = assay: qPCR for Ikzf2 mRNA in Jurkat cells; assay type: cell-based; details: 4 h, n=3
Description: FIG. 2A is a graph of 520/490 TR-FRET ratios. […] FIG. 2C is immunoblots from wildtype or Crbn−/− Jurkat cells treated with compound 54 for 4 h. FIG. 2D is immunoblots from Jurkat cells co-treated with compound 54 (1 μM) and bortezomib (bort.; 1 μM) or MLN4924 (1 μM) for 4 h. FIG. 2E is a bar graph showing quantitative polymerase chain reaction (qPCR) for Ikzf2 messenger ribonucleic acid (mRNA) from Jurkat cells treated for 4 h (n=3; N.S.=not significant).

[3] = compound concentration 2.00E−05
[4] = compound concentration 2.00E−06
[5] = compound concentration 2.00E−07
[6] = compound concentration 6.6667E−05
[7] = compound concentration 6.6667E−06
[8] = compound concentration 6.6667E−07 (667 nM)

T4 sequence (Q9UJQ4 378-438 limits assumed): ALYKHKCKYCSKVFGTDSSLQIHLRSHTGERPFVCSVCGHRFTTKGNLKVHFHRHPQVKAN
T4 sequence (Q96SW2 whole entry, the tested form may be a part): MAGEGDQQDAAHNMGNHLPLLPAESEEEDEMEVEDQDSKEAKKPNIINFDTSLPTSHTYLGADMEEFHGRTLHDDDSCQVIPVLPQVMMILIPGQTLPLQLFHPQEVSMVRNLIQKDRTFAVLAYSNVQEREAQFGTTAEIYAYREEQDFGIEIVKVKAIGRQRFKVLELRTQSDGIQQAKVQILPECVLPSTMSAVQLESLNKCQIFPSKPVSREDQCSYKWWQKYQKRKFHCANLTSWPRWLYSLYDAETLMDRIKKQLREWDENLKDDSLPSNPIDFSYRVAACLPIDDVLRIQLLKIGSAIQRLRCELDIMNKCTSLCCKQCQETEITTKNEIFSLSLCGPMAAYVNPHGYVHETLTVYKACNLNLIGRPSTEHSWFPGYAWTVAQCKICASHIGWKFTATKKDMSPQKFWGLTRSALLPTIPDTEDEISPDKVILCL
T4 sequence (Q16531 whole entry partner, the tested form may be a part): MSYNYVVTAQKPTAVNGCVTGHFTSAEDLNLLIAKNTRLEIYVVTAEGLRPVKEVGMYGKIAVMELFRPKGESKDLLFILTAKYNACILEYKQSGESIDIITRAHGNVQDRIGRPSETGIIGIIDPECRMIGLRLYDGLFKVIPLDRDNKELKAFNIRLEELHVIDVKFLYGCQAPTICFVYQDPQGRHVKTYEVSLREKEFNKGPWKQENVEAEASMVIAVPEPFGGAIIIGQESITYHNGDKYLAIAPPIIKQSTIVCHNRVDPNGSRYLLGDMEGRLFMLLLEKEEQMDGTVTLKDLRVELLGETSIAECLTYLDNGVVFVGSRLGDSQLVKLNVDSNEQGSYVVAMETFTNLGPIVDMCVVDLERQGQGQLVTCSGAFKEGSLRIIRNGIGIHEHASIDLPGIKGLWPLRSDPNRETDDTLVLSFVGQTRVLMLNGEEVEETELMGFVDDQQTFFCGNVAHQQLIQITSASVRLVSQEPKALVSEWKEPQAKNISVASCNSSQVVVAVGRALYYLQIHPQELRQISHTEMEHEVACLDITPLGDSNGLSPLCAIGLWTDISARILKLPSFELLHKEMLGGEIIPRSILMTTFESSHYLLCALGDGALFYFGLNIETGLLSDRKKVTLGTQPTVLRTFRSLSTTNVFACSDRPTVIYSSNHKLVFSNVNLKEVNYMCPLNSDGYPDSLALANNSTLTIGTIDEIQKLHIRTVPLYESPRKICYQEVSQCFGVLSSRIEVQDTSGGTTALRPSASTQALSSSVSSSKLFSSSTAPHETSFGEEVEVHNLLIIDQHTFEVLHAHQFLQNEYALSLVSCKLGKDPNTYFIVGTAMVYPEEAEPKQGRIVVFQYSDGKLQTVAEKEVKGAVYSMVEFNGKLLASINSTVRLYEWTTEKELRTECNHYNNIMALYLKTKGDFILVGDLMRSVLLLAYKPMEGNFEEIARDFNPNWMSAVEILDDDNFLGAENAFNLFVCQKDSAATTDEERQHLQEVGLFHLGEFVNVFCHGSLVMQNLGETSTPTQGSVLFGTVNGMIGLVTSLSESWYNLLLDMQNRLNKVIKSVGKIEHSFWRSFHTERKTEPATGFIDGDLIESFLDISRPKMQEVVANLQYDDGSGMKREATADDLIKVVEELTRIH
T5 sequence (Q96SW2 whole entry): as the sequence (Q96SW2 whole entry, the tested form may be a part) above
T5 sequence (Q9UKS7 whole entry): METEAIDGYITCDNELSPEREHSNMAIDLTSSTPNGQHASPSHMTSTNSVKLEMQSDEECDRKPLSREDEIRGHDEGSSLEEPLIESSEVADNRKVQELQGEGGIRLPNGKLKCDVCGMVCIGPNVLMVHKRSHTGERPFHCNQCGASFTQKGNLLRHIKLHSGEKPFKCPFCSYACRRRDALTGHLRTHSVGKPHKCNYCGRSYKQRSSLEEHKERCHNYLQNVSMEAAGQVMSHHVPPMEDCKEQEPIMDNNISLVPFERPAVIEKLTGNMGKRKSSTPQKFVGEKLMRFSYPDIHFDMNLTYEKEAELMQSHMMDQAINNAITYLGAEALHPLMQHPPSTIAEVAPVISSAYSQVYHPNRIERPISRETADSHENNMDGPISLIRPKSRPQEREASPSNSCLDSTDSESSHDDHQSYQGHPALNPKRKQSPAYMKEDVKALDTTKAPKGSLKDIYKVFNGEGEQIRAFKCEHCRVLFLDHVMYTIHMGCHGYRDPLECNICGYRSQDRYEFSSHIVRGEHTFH
T2 sequence (Q13422 83-213 isoform Q13422-7 limits assumed): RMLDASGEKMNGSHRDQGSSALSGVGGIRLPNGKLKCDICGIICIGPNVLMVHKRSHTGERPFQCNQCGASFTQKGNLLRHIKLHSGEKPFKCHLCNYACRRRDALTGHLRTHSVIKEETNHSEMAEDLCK
T2 sequence (Q96SW2 whole entry partner, the tested form may be a part): as the sequence (Q96SW2 whole entry, the tested form may be a part) above
T2 sequence (Q16531 2-1140 partner limits assumed): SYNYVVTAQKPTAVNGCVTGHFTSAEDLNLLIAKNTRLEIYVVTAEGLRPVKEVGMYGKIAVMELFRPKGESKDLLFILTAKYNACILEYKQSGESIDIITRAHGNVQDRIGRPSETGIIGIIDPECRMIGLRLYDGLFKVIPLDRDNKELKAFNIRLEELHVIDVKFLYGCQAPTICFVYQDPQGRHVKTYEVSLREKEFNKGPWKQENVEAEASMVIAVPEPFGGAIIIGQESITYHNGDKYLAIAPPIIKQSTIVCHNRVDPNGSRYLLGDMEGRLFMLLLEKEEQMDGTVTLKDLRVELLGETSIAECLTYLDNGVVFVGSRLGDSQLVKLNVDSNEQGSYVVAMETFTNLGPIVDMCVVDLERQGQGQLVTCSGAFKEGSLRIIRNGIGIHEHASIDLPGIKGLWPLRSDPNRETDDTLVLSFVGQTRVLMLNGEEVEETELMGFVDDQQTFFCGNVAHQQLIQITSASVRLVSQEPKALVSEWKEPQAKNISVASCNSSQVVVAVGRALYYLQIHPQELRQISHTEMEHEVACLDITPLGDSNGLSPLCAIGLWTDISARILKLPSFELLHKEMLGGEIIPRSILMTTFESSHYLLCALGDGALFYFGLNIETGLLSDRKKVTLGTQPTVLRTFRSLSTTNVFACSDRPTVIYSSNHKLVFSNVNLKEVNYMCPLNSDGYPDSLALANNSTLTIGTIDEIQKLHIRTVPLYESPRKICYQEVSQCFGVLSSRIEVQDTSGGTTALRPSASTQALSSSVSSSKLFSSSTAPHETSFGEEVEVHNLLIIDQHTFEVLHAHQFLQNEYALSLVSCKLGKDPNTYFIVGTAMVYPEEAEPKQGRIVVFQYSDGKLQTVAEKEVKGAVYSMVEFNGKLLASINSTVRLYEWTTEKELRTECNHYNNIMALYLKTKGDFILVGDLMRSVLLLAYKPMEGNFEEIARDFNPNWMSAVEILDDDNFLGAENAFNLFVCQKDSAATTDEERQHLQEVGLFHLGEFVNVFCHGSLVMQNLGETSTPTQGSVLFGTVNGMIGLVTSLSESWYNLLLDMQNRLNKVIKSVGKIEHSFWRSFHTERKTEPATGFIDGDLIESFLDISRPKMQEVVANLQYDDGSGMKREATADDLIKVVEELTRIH

| Compound | IKZF1 GFP/RFP Relative Abundance (IKZF1; [3]) | IKZF1 GFP/RFP Relative Abundance (IKZF1; [4]) | IKZF1 GFP/RFP Relative Abundance (IKZF1; [5]) | IKZF2 GFP/RFP Relative Abundance (IKZF2; [3]) | IKZF2 GFP/RFP Relative Abundance (IKZF2; [4]) | IKZF2 GFP/RFP Relative Abundance (IKZF2; [5]) | GSPT1 GFP/RFP Relative Abundance (GSPT1; [3]) | GSPT1 GFP/RFP Relative Abundance (GSPT1; [4]) | GSPT1 GFP/RFP Relative Abundance (GSPT1; [5]) | SALL4 ZNF1-2 GFP/RFP Relative Abundance (SALL4 ZNF1-2; [3]) | SALL4 ZNF1-2 GFP/RFP Relative Abundance (SALL4 ZNF1-2; [4]) | SALL4 ZNF1-2 GFP/RFP Relative Abundance (SALL4 ZNF1-2; [5]) | TR-FRET signal (520/490 ratio), CRBN-Helios dimerization, in words (CRBN and Helios (IKZF2)) | TR-FRET-IKZF2 (Normalized to CC-885) (CRBN and Helios (IKZF2); [6]) | TR-FRET-IKZF2 (Normalized to CC-885) (CRBN and Helios (IKZF2); [7]) | TR-FRET-IKZF2 (Normalized to CC-885) (CRBN and Helios (IKZF2); [8]) | also measured |
| --- | --- | --- | --- | --- | --- | --- | --- | --- | --- | --- | --- | --- | --- | --- | --- | --- | --- |
| Cc1ccc(NC(=O)NCc2cccc(NC3=CC(=O)N(C4CCC(=O)NC4=O)C3=O)c2)cc1Cl (stereo not drawn) [Compound 44, 1-(3-chloro-4-methylphenyl)-3-(3-((1-(2,6-dioxopiperidin-3-yl)-2,5-dioxo-2,5-dihydro-1H-pyrrol-3-yl)amino)benzyl)urea] | 0.059 | 0.071 | 0.072 | 0.042 | 0.079 | 0.085 | 0.399 | 0.504 | 0.744 | 0.888 | 0.742 | 0.702 | increased activity over CC-885 at all tested concentrations | 1.223 | 1.191 | 1.119 | Ikaros loss (immunoblot) (Ikaros; 24 h treatment): induced loss of both Ikaros and Helios; Helios loss (immunoblot) (Helios [1]; Jurkat cells, 24 h treatment): induced loss of both Ikaros and Helios; also recorded: required 24 h treatment |
| Cc1ccc(NC(=O)NC(C)c2cccc(NC3=CC(=O)N(C4CCC(=O)NC4=O)C3=O)c2)cc1Cl (stereo not drawn) [Compound 54, 1-(3-chloro-4-methylphenyl)-3-(1-(3-((1-(2,6-dioxopiperidin-3-yl)-2,5-dioxo-2,5-dihydro-1H-pyrrol-3-yl)amino)phenyl)ethyl)urea] | 0.119 | 0.106 | 0.102 | 0.030 | 0.024 | 0.027 | 0.420 | 0.638 | 0.567 | – | – | – | scored even higher than compound 44 | 1.729 | 1.629 | 1.382 | Ikaros degradation (immunoblot) (Ikaros; 4 h treatment): lost some degradation activity against Ikaros in comparison to compound 44; Helios degradation in murine cells (Helios [2]): Helios was only degraded in Crbn^I391V/I391V cells; Helios degradation on co-treatment with proteasome or NAE inhibitor (Helios [1]; Jurkat cells, 1 μM compound with 1 μM bortezomib, MLN4924 or carfilzomib, 4 h): both prevented Helios degradation; Helios degradation (immunoblot) (Helios [1]; wildtype or Crbn−/− Jurkat cells, 4 h treatment): induced CRBN-dependent Helios degradation; IKZF2 mRNA levels (qPCR) (Ikzf2 mRNA): did not affect mRNA levels of IKZF2 |
| O=C1CCC(N2C(=O)C=C(Nc3cccc(Cl)c3)C2=O)C(=O)N1 (stereo not drawn) [Compound 26, 3-(3-((3-chlorophenyl)amino)-2,5-dioxo-2,5-dihydro-1H-pyrrol-1-yl)piperidine-2,6-dione] | 0.290 | 0.381 | 0.478 | 0.913 | 0.929 | 0.981 | 0.952 | 1.036 | 1.107 | 0.855 | 0.869 | 0.787 | – | 0.365 | 0.293 | 0.228 | – |
| COC(=O)CNC1=CC(=O)N(C2CCC(=O)NC2=O)C1=O (stereo not drawn) [Compound 13, Methyl (1-(2,6-dioxopiperidin-3-yl)-2,5-dioxo-2,5-dihydro-1H-pyrrol-3-yl)glycinate] | 1.069 | 1.076 | 1.058 | 1.040 | 1.005 | 1.070 | 1.172 | 1.162 | 1.004 | 0.962 | 1.017 | 1.017 | – | 0.032 | 0.028 | 0.019 | – |
